Biological target: T1, human ENT1 (Homo sapiens, UniProt Q99808)
T1 sequence (Q99808 1-456): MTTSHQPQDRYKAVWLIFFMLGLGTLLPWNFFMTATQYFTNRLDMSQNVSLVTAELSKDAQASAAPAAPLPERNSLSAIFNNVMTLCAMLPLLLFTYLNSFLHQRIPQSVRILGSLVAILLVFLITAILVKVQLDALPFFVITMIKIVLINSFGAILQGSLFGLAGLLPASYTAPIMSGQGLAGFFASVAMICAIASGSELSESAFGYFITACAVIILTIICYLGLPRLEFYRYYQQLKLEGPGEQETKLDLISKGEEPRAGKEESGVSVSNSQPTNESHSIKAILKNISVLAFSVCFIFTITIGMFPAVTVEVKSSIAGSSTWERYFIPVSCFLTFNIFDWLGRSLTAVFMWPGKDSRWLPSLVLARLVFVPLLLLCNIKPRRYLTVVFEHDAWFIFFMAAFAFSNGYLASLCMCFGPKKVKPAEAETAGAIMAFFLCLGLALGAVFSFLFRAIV
Assay: ENT1 binding assay (competition with Sahenta-DY647 on JAR cells)
Parameters: JAR cells expressing ENT1 were bought from ATCC; host or cells: JAR cells
Conditions: binned IC50
Protocol: Purpose. […] By measuring the fluorescence at the end of the assay we could assess the binding potency of the compounds of the present invention.
JAR cells were resuspended in the described buffer. Compounds of the present invention and Sahenta-DY647 were diluted 200× in the described buffer.
The total volume of the reaction was 100 μL (50 μL of cells, 25 μL of the compounds of the present invention and 25 μL of Sahenta-DY647) in a 96 well plate, U-bottom (Greiner®, #650-180). The plates were washed 2× by centrifugation (4 min, 400 rcf at 4° C.) in the same buffer.

IC50	SMILES
< 100 nM	COCCN(CCOC)c1nc(N2CCN(C)C(=O)C2)c2nc(N(CCOC)Cc3cc(OC)c(OC)c(OC)c3)nc(N3CCC(OC)CC3)c2n1 [Compound 269, 4-(2-(bis(2-methoxyethyl)amino)-6-((2-methoxyethyl)(3,4,5-trimethoxybenzyl)amino)-8-(4-methoxypiperidin-1-yl)pyrimido[5,4-d]pyrimidin-4-yl)-1-methylpiperazin-2-one]
100 to 500 nM	COCCN(CCOC)c1nc(N2CCC(OC)CC2)c2nc(N(CCOC)CCOCCN3C(=O)c4ccccc4C3=O)nc(N3CCC(OC)CC3)c2n1 [Compound 172, 2-(2-(2-((6-(bis(2-methoxyethyl)amino)-4,8-bis(4-methoxypiperidin-1-yl)pyrimido[5,4-d]pyrimidin-2-yl)(2-methoxyethyl)amino)ethoxy)ethyl)isoindoline-1,3-dione]
< 100 nM	COCCN(CCOC)c1nc(N2CCC(OC)CC2)c2nc(N(CCOC)CCOC)nc(NCc3ccc(F)c(F)c3)c2n1 [Compound 139, N4-(3,4-difluorobenzyl)-N2,N2,N6,N6-tetrakis(2-methoxyethyl)-8-(4-methoxypiperidin-1-yl)pyrimido[5,4-d]pyrimidine-2,4,6-triamine]
100 to 500 nM	COCCN(CCOC)c1nc(N2CCC(F)(F)CC2)c2nc(N(CCOC)CCOC)nc(N3CCC(F)(F)CC3)c2n1 [Compound 195, 4,8-bis(4,4-difluoropiperidin-1-yl)-N2,N2,N6,N6-tetrakis(2-methoxyethyl)pyrimido[5,4-d]pyrimidine-2,6-diamine]
100 to 500 nM	COCCN(CCOC)c1nc(N2CCC(OC)CC2)c2nc(N(CCO)CCO)nc(N3CC(=O)N4CCCC4C3)c2n1 (stereo not drawn) [Compound 313, 2-(2-(bis(2-hydroxyethyl)amino)-6-(bis(2-methoxyethyl)amino)-8-(4-methoxypiperidin-1-yl)pyrimido[5,4-d]pyrimidin-4-yl)hexahydropyrrolo[1,2-a]pyrazin-4(1H)-one]
500 to 1000 nM	COCCN(CCOC)c1nc(N2CCC(OC)CC2)c2nc(N3CCc4[nH]cnc4C3)nc(N3CCN(C)C(=O)C3)c2n1 [Compound 290, 4-(6-(bis(2-methoxyethyl)amino)-8-(4-methoxypiperidin-1-yl)-2-(1,4,6,7-tetrahydro-5H-imidazo[4,5-c]pyridin-5-yl)pyrimido[5,4-d]pyrimidin-4-yl)-1-methylpiperazin-2-one]
100 to 500 nM	COCCN(CCOC)c1nc(N2CCN(C)C(=O)C2)c2nc(N(CCOC)CCOC)nc(N3CCS(=O)(=O)CC3)c2n1 [Compound 188, 4-(2,6-bis(bis(2-methoxyethyl)amino)-8-(1,1-dioxidothiomorpholino)pyrimido[5,4-d]pyrimidin-4-yl)-1-methylpiperazin-2-one]
500 to 1000 nM	COCCN(CCOC)c1nc(N2CCC(OC)CC2)c2nc(N(CCOC)CCOC)nc(N(C)C)c2n1 [Compound 67, N2,N2,N6,N6-tetrakis(2-methoxyethyl)-8-(4-methoxypiperidin-1-yl)-N4,N4-dimethylpyrimido[5,4-d]pyrimidine-2,4,6-triamine]
100 to 500 nM	COCCN(CCOC)c1nc(N2CCC(OC)CC2)c2nc(N(CCOC)CCOC)nc(N(C)CCO)c2n1 [Compound 112, 2-((2,6-bis(bis(2-methoxyethyl)amino)-8-(4-methoxypiperidin-1-yl)pyrimido[5,4-d]pyrimidin-4-yl)(methyl)amino)ethanol]
100 to 500 nM	COCCN(Cc1ccc(C(=O)O)c(OC)c1)c1nc(N2CCN(C)C(=O)C2)c2nc(N(CCOC)CCOC)nc(N3CCC(OC)CC3)c2n1 [Compound 337, 4-(((6-(bis(2-methoxyethyl)amino)-8-(4-methoxypiperidin-1-yl)-4-(4-methyl-3-oxopiperazin-1-yl)pyrimido[5,4-d]pyrimidin-2-yl)(2-methoxyethyl)amino)methyl)-2-methoxybenzoic acid]
< 100 nM	COCCN(CCOC)c1nc(N2CCn3ccnc3C2)c2nc(N(CCOC)CCOC)nc(N3CCN(C)C(=O)C3)c2n1 [Compound 257, 4-(2,6-bis(bis(2-methoxyethyl)amino)-8-(5,6-dihydroimidazo[1,2-a]pyrazin-7(8H)-yl)pyrimido[5,4-d]pyrimidin-4-yl)-1-methylpiperazin-2-one]
< 100 nM	COCCN(CCOC)c1nc(N2CCN(C)C(=O)C2)c2nc(N(CCOC)CCOC)nc(N(C)Cc3ccccc3)c2n1 [Compound 230, 4-(8-(benzyl(methyl)amino)-2,6-bis(bis(2-methoxyethyl)amino)pyrimido[5,4-d]pyrimidin-4-yl)-1-methylpiperazin-2-one]
500 to 1000 nM	CCOC(=O)C1CCN(c2nc(N(CCOC)CCOC)nc3c(N4CCC(C(=O)OCC)CC4)nc(N(CCO)CCO)nc23)CC1 [Compound 14, diethyl 1,1′-(2-(bis(2-hydroxyethyl)amino)-6-(bis(2-methoxyethyl)amino)pyrimido[5,4-d]pyrimidine-4,8-diyl)bis(piperidine-4-carboxylate)]
< 100 nM	CCCN(C)c1nc(N(CCOC)CCOC)nc2c(N3CCS(=O)(=O)CC3)nc(N(CCOC)CCOC)nc12 [Compound 8, 4-(2,6-bis(bis(2-methoxyethyl)amino)-8-(methyl(propyl)amino)pyrimido[5,4-d]pyrimidin-4-yl)thiomorpholine 1,1-dioxide]
500 to 1000 nM	COCCN(CCC(=O)NS(=O)(=O)N(C)C)c1nc(N2CCN(C)C(=O)C2)c2nc(N(CCOC)CCOC)nc(N3CCC(OC)CC3)c2n1 [Compound 334, 3-((6-(bis(2-methoxyethyl)amino)-8-(4-methoxypiperidin-1-yl)-4-(4-methyl-3-oxopiperazin-1-yl)pyrimido[5,4-d]pyrimidin-2-yl)(2-methoxyethyl)amino)-N-(N,N-dimethylsulfamoyl)propanamide]
< 100 nM	COCCN(Cc1cc(F)c(C(=O)O)c(F)c1)c1nc(N2CCN(C)C(=O)C2)c2nc(N(CCOC)CCOC)nc(N3CCC(OC)CC3)c2n1 [Compound 340, 4-(((6-(bis(2-methoxyethyl)amino)-8-(4-methoxypiperidin-1-yl)-4-(4-methyl-3-oxopiperazin-1-yl)pyrimido[5,4-d]pyrimidin-2-yl)(2-methoxyethyl)amino)methyl)-2,6-difluorobenzoic acid]
100 to 500 nM	COCCN(CCOC)c1nc(N2CC(=O)N(C)C(C)(C)C2)c2nc(N(CCO)CCO)nc(N3CCC(OC)CC3)c2n1 [Compound 312, 4-(6-(bis(2-hydroxyethyl)amino)-2-(bis(2-methoxyethyl)amino)-8-(4-methoxypiperidin-1-yl)pyrimido[5,4-d]pyrimidin-4-yl)-1,6,6-trimethylpiperazin-2-one]
500 to 1000 nM	COCCN(Cc1ccc(C(=O)O)cc1)c1nc(N2CCN(C)C(=O)C2)c2nc(N(CCOC)CCOC)nc(N3CCC(OC)CC3)c2n1 [Compound 333, 4-(((6-(bis(2-methoxyethyl)amino)-8-(4-methoxypiperidin-1-yl)-4-(4-methyl-3-oxopiperazin-1-yl)pyrimido[5,4-d]pyrimidin-2-yl)(2-methoxyethyl)amino)methyl)benzoic acid]
< 100 nM	COCCN(CCOC)c1nc(N2CCC(OC)CC2)c2nc(N(CCOC)CCOC)nc(OCc3ccc(F)c(OC)c3)c2n1 [Compound 157, 4-((4-fluoro-3-methoxybenzyl)oxy)-N2,N2,N6,N6-tetrakis(2-methoxyethyl)-8-(4-methoxypiperidin-1-yl)pyrimido[5,4-d]pyrimidine-2,6-diamine]
500 to 1000 nM	CCN(CCN1CCCC1)c1nc(N2CCC(OC)CC2)c2nc(N(CCOC)CCOC)nc(N3CCC(OC)CC3)c2n1 [Compound 132, N2-ethyl-N6,N6-bis(2-methoxyethyl)-4,8-bis(4-methoxypiperidin-1-yl)-N2-(2-(pyrrolidin-1-yl)ethyl)pyrimido[5,4-d]pyrimidine-2,6-diamine]
500 to 1000 nM	COCCN(CCOC)c1nc(N2CCC(OC)CC2)c2nc(N(CCOC)CCOC)nc(N3CCOCC3)c2n1 [Compound 69, N2,N2,N6,N6-tetrakis(2-methoxyethyl)-4-(4-methoxypiperidin-1-yl)-8-morpholinopyrimido[5,4-d]pyrimidine-2,6-diamine]
100 to 500 nM	COCCN(CCOC)c1nc(N2CCC(OC)CC2)c2nc(N(CCOC)CCOC)nc(NCc3ccc(OC)cc3)c2n1 [Compound 47, N4-(4-methoxybenzyl)-N2,N2,N6,N6-tetrakis(2-methoxyethyl)-8-(4-methoxypiperidin-1-yl)pyrimido[5,4-d]pyrimidine-2,4,6-triamine]
100 to 500 nM	COCCN(CCOC)c1nc(N2CCC(OC)CC2)c2nc(N(CCOC)CCOC)nc(NCCCCC#N)c2n1 [Compound 179, 5-((2,6-bis(bis(2-methoxyethyl)amino)-8-(4-methoxypiperidin-1-yl)pyrimido[5,4-d]pyrimidin-4-yl)amino)pentanenitrile]
< 100 nM	COCCN(CCOC)c1nc(N2CCN(C)C(=O)C2)c2nc(N(CCOC)CCOC)nc(NCc3ccc(F)c(C#N)c3)c2n1 [Compound 211, 5-(((2,6-bis(bis(2-methoxyethyl)amino)-8-(4-methyl-3-oxopiperazin-1-yl)pyrimido[5,4-d]pyrimidin-4-yl)amino)methyl)-2-fluorobenzonitrile]

Source: patent US20230146675A1, “PYRIMIDO[5,4-d]PYRIMIDINE DERIVATIVES AS ENT INHIBITORS FOR THE TREATMENT OF CANCERS, AND COMBINATION THEREOF WITH ADENOSINE RECEPTOR ANTAGONISTS” (ITEOS BELGIUM SA, priority 2020, published 2023)
